The source made the active and inactive calls. No cut-off for these calls is given here.
Columns and labels:
Format in all cases: functional, organism-based
Toxoplasma gondii [1] = experiment: Antimicrobial activity against Toxoplasma gondii RH containing alpha1-tubulin L136F mutation infected in HFF cells by plaque assay
Toxoplasma gondii [2] = experiment: Antimicrobial activity against Toxoplasma gondii RH containing alpha1-tubulin F24H mutation infected in HFF cells by plaque assay
Toxoplasma gondii [3] = experiment: Antimicrobial activity against Toxoplasma gondii RH containing alpha1-tubulin T239I mutation infected in HFF cells by plaque assay
Toxoplasma gondii [4] = experiment: Antimicrobial activity against Toxoplasma gondii RH infected in HFF cells by plaque assay
Toxoplasma gondii [5] = experiment: Antimicrobial activity against Toxoplasma gondii RH containing alpha1-tubulin V4L mutation infected in HFF cells by plaque assay
Cryptosporidium parvum = experiment: Antimicrobial activity against Cryptosporidium parvum by short-term in vitro culture assay
Toxoplasma gondii [6] = experiment: Antimicrobial activity against Toxoplasma gondii RH containing alpha1-tubulin R243S mutation infected in HFF cells by plaque assay
Toxoplasma gondii [7] = experiment: Antimicrobial activity against Toxoplasma gondii RH containing alpha1-tubulin I235L mutation infected in HFF cells by plaque assay
Toxoplasma gondii [8] = experiment: Antimicrobial activity against Toxoplasma gondii RH containing alpha1-tubulin I235T mutation infected in HFF cells by plaque assay
Toxoplasma gondii [9] = experiment: Antimicrobial activity against Toxoplasma gondii RH containing alpha1-tubulin R243C mutation infected in HFF cells by plaque assay
Toxoplasma gondii [10] = experiment: Antimicrobial activity against Toxoplasma gondii RH containing alpha1-tubulin S6I mutation infected in HFF cells by plaque assay
Toxoplasma gondii [11] = experiment: Antimicrobial activity against Toxoplasma gondii RH containing alpha1-tubulin I235V mutation infected in HFF cells by plaque assay
Toxoplasma gondii [12] = experiment: Antimicrobial activity against Toxoplasma gondii RH containing alpha1-tubulin H28Q mutation infected in HFF cells by plaque assay
Toxoplasma gondii [13] = experiment: Induction of parasite microtubule disruption Toxoplasma gondii RH infected in HFF cells by antitubulin antibody staining
Toxoplasma gondii [14] = experiment: Induction of parasite shape change Toxoplasma gondii RH infected in HFF cells at 0.25 uM by phase contrast microscopy

| SMILES | IC50 (Toxoplasma gondii [1]) [µM] | IC50 (Toxoplasma gondii [2]) [µM] | IC50 (Toxoplasma gondii [3]) [µM] | IC50 (Toxoplasma gondii [4]) [µM] | IC50 (Toxoplasma gondii [5]) [µM] | IC50 (Cryptosporidium parvum) [µM] | IC50 (Toxoplasma gondii [6]) [µM] | IC50 (Toxoplasma gondii [7]) [µM] | IC50 (Toxoplasma gondii [8]) [µM] | IC50 (Toxoplasma gondii [9]) [µM] | IC50 (Toxoplasma gondii [10]) [µM] | IC50 (Toxoplasma gondii [11]) [µM] | IC50 (Toxoplasma gondii [12]) [µM] | Activity (Toxoplasma gondii [13]) | Activity (Toxoplasma gondii [14]) |
| --- | --- | --- | --- | --- | --- | --- | --- | --- | --- | --- | --- | --- | --- | --- | --- |
| CCCN(CCCl)c1c([N+](=O)[O-])cc(C(F)(F)F)cc1[N+](=O)[O-] [FLUCHLORALIN] | 22.2 | 3.2 | 20.5 | 0.33 | 8 | 1.81 | 17.7 | 1 | 2.1 | 2.2 | 1.9 | 0.77 | 1.6 | – | – |
| CCCN(CCC)c1c([N+](=O)[O-])cc(C(C)C)cc1[N+](=O)[O-] [ISOPROPALIN] | 15 | 3.5 | 15 | 0.88 | 7 | – | 13.5 | 2.2 | 4.3 | 4 | 2.2 | 2.2 | 3.4 | – | – |
| CCCN(CCC)c1c([N+](=O)[O-])cc(C(F)(F)F)cc1[N+](=O)[O-] [TRIFLURALIN] | 27 | 4.2 | 23.4 | 0.52 | 13.8 | 1.94 | 23.3 | 1.9 | 5.1 | 4.1 | 2.8 | 1.8 | 5.3 | – | – |
| CCCN(CC1CC1)c1c([N+](=O)[O-])cc(C(F)(F)F)cc1[N+](=O)[O-] [PROFLURALIN] | 21.2 | 4.3 | 22.1 | 0.61 | 8.2 | 1.9 | 20.4 | 1.5 | 3.9 | 3.2 | 2.6 | 1.5 | 2.8 | – | – |
| C=C(C)CN(CC)c1c([N+](=O)[O-])cc(C(F)(F)F)cc1[N+](=O)[O-] [ETHALFLURALIN] | 24 | 2.1 | 28.7 | 0.26 | 13.5 | – | 19.5 | 1.4 | 1.7 | 1.6 | 2.5 | 0.65 | 4.2 | – | – |
| CCC(C)Nc1c([N+](=O)[O-])cc(C(C)(C)C)cc1[N+](=O)[O-] (centres undefined) [BUTRALIN] | 32 | 24.2 | 28.7 | 1.8 | 32.1 | – | 25.1 | 9.1 | 7.4 | 12.8 | 4.5 | 3.8 | 10.2 | – | – |
| CCCN(CCC)c1c([N+](=O)[O-])cc(S(=O)(=O)Nc2ccccc2)cc1[N+](=O)[O-] | 9.7 | 17.2 | 17.1 | 6.7 | 26.2 | – | 13.3 | 7.7 | 16.9 | 17 | 12.4 | 4.7 | 12.4 | – | – |
| CCC(CC)Nc1c([N+](=O)[O-])cc(C)c(C)c1[N+](=O)[O-] [PENDIMETHALIN] | 13.2 | 3.2 | 12.2 | 0.26 | 3.2 | 0.19 | 9.7 | 1 | 0.71 | 1.1 | 0.75 | 0.34 | 2.5 | – | – |
| CCN(CC)c1c([N+](=O)[O-])cc(C(F)(F)F)c(N)c1[N+](=O)[O-] [DINITRAMINE] | 12.5 | 0.37 | 26.6 | 0.045 | 3.4 | – | 18.4 | 0.32 | 0.32 | 0.33 | 0.42 | 0.089 | 0.51 | Active | Active |
| CCCN(CCC)c1c([N+](=O)[O-])cc(S(N)(=O)=O)cc1[N+](=O)[O-] [ORYZALIN] | 27.7 | 1.26 | 25.3 | 0.25 | 14.7 | 0.7 | 16 | 1.6 | 5.5 | 2.2 | 1.5 | 2.3 | 1.4 | – | – |
| CCCN(CCC)c1c([N+](=O)[O-])cc(S(C)(=O)=O)cc1[N+](=O)[O-] [NITRALIN] | 31.3 | 3.7 | 30.3 | 0.5 | 19.2 | 4.5 | 23.9 | 2.1 | 4.9 | 4.3 | 2.1 | 1.6 | 1.8 | – | – |
| COP(=S)(NC(C)C)Oc1ccc(C)cc1[N+](=O)[O-] (centres undefined) [AMIPROPHOS METHYL] | 28.5 | 10 | 28.5 | 1 | 2.1 | – | 19.1 | 3.9 | 7.1 | 5.9 | 3.3 | 1.5 | 5.1 | – | – |
| CCCCN(CC)c1c([N+](=O)[O-])cc(C(F)(F)F)cc1[N+](=O)[O-] [BENFLURALIN] | 27.7 | 15.7 | 22.9 | 1.5 | 18.8 | – | 21.7 | 4.6 | 9.3 | 12 | 7.4 | 3.7 | 15.2 | – | – |

Reference: ChEMBL document CHEMBL1255423, “Dinitroaniline activity in Toxoplasma gondii expressing wild-type or mutant alpha-tubulin” (Antimicrob Agents Chemother, 2010)
